Experimental data: patent US8846669B2, “Oxazolidinone derivative and medical composition containing same” (Legochem Biosciences, Inc., priority 2011, dated 2014)
Converted amounts (≈) assume the structure as drawn. Like-named read-outs stand apart in the source and are kept apart here.

Assays:
Test in all cases: In vitro antibacterial activity, broth microdilution MIC90
Format in all cases: cell-based
[1] = test system: Moraxella catarrhalis; settings: Moraxella catarrhalis
Experimental: (§1) MIC90 was measured by broth microdilution method based on CLSI standards [reference: Clinical and Laboratory Standards Institute Document. (2000) Methods for Dilution Antimicrobial Susceptibility Test for Bacteria that Grow Aerobically-Fifth Edition: M7-A5. CLSI, Villanova, Pa.].
(§2) Activities of 12 strains including Staphylococcus aureus, Methicillin Resistant Staphylococcus aureus, Staphylococcus epidermidis, Methicillin Resistant Staphylococcus epidermidis, Enterococcus faecalis, Vancomycin Resistant Enterococcus faecalis, Linezolid and Vancomycin Resistant Enterococcus faecalis, Enterococcus faecium, Vancomycin Resistant Enterococcus faecium, Linezolid and Vancomycin Resistant Enterococcus faecium, and Moraxella catarrhalis, were measured, and results are shown in Table 1 below.
(§3) The final concentration of test material in the antibacterial test was from 0.063 μg/mL (minimum) to 128 μg/mL (maximum), and the final concentration of DMSO used as an excipient was 2.5% (V/V). Linezolid represented by Formula B below (manufactured by Pfizer) was used as a control and bacterial activity thereof was compared with those of the test materials.

[2] = test system: Vancomycin Resistant Enterococcus faecium; settings: Enterococcus faecium
Experimental: as §1, §2, §3

[3] = test system: Staphylococcus aureus; settings: Staphylococcus aureus
Experimental: as §1, §2, §3

[4] = test system: Methicillin Resistant Staphylococcus epidermidis; settings: Staphylococcus epidermidis
Experimental: as §1, §2, §3

[5] = test system: Enterococcus faecium; settings: Enterococcus faecium
Experimental: as §1, §2, §3

[6] = test system: Staphylococcus epidermidis; settings: Staphylococcus epidermidis
Experimental: as §1, §2, §3

[7] = test system: Linezolid and Vancomycin Resistant Enterococcus faecalis; settings: for MIC90: Enterococcus faecalis
Experimental: as §1, §2, §3

[8] = test system: Methicillin Resistant Staphylococcus aureus; settings: Staphylococcus aureus
Experimental: as §1, §2, §3

[9] = test system: Vancomycin Resistant Enterococcus faecalis; settings: Enterococcus faecalis
Experimental: as §1, §2, §3

[10] = test system: Linezolid and Vancomycin Resistant Enterococcus faecium (strain 11); settings: Enterococcus faecium
Experimental: as §1, §2, §3

[11] = test system: Enterococcus faecalis; settings: Enterococcus faecalis
Experimental: as §1, §2, §3

[12] = test system: Linezolid and Vancomycin Resistant Enterococcus faecium (strain 10); settings: Enterococcus faecium
Experimental: as §1, §2, §3

[13] = strain 12, M. catarrhalis, read-out: MIC90
[14] = strain 9, E. faecium VanA, read-out: MIC90
[15] = strain 1, S. aureus, read-out: MIC90
[16] = strain 4, S. epidermidis MR, read-out: MIC90
[17] = strain 8, E. faecium, read-out: MIC90
[18] = strain 3, S. epidermidis, read-out: MIC90
[19] = strain 7, E. faecalis VanA LR, read-out: MIC90
[20] = strain 2, S. aureus MR, read-out: MIC90
[21] = strain 6, E. faecalis VanA, read-out: MIC90
[22] = strain 11, E. faecium VanA LR, read-out: MIC90
[23] = strain 5, E. faecalis, read-out: MIC90
[24] = strain 10, E. faecium VanA LR, read-out: MIC90

| Structure (SMILES) | MIC90 [2] | MIC90 [3] | MIC90 [4] | MIC90 [5] | MIC90 [6] | MIC90 [7] | MIC90 [8] | MIC90 [9] | MIC90 [10] | MIC90 [11] | MIC90 [12] | MIC90 [2, 14] | MIC90 [3, 15] | MIC90 [4, 16] | MIC90 [5, 17] | MIC90 [6, 18] | MIC90 [7, 19] | MIC90 [8, 20] | MIC90 [9, 21] | MIC90 [10, 22] | also measured |
| --- | --- | --- | --- | --- | --- | --- | --- | --- | --- | --- | --- | --- | --- | --- | --- | --- | --- | --- | --- | --- | --- |
| COC(=O)NC[C@H]1CN(c2ccc(-c3ccc(N4C=NN(C(N)=O)CC4)nc3)c(F)c2)C(=O)O1 [Compound 26] | 0.5 µg/mL (≈ 1.06 µM) | 0.25 µg/mL (≈ 0.53 µM) | 1 µg/mL (≈ 2.12 µM) | 0.25 µg/mL (≈ 0.53 µM) | 0.5 µg/mL (≈ 1.06 µM) | 4 µg/mL (≈ 8.48 µM) | 1 µg/mL (≈ 2.12 µM) | 0.5 µg/mL (≈ 1.06 µM) | 2 µg/mL (≈ 4.24 µM) | 0.5 µg/mL (≈ 1.06 µM) | 4 µg/mL (≈ 8.48 µM) | – | – | – | – | – | – | – | – | – | MIC90 [1]: 4 µg/mL (≈ 8.48 µM) |
| CC(=O)NC[C@H]1CN(c2ccc(-c3ccc(N4CCON=C4C)nc3)c(F)c2)C(=O)O1 [Compound 62] | – | – | – | – | – | – | – | – | – | – | – | 1 µg/mL (≈ 2.34 µM) | 0.5 µg/mL (≈ 1.17 µM) | 4 µg/mL (≈ 9.36 µM) | 0.5 µg/mL (≈ 1.17 µM) | 0.5 µg/mL (≈ 1.17 µM) | 4 µg/mL (≈ 9.36 µM) | 2 µg/mL (≈ 4.68 µM) | 1 µg/mL (≈ 2.34 µM) | 4 µg/mL (≈ 9.36 µM) | MIC90 [1, 13]: 4 µg/mL (≈ 9.36 µM); MIC90 [11, 23]: 1 µg/mL (≈ 2.34 µM); MIC90 [12, 24]: 8 µg/mL (≈ 18.7 µM) |
| COC(=O)NC[C@H]1CN(c2ccc(-c3ccc(C4=NOCCN4C)nc3)c(F)c2)C(=O)O1 [Compound 70] | – | – | – | – | – | – | – | – | – | – | – | 1 µg/mL (≈ 2.26 µM) | 1 µg/mL (≈ 2.26 µM) | 4 µg/mL (≈ 9.02 µM) | 1 µg/mL (≈ 2.26 µM) | 1 µg/mL (≈ 2.26 µM) | 8 µg/mL (≈ 18 µM) | 2 µg/mL (≈ 4.51 µM) | 2 µg/mL (≈ 4.51 µM) | 8 µg/mL (≈ 18 µM) | MIC90 [1, 13]: 4 µg/mL (≈ 9.02 µM); MIC90 [11, 23]: 2 µg/mL (≈ 4.51 µM); MIC90 [12, 24]: 8 µg/mL (≈ 18 µM) |
| CC(=O)NC[C@H]1CN(c2ccc(-c3ccc(N4C=NN(C(=O)CO)CC4)nc3)c(F)c2)C(=O)O1 [Compound 11] | 0.125 µg/mL (≈ 0.266 µM) | 0.063 µg/mL (≈ 0.134 µM) | 0.25 µg/mL (≈ 0.531 µM) | 0.063 µg/mL (≈ 0.134 µM) | 0.063 µg/mL (≈ 0.134 µM) | 0.5 µg/mL (≈ 1.06 µM) | 0.25 µg/mL (≈ 0.531 µM) | 0.125 µg/mL (≈ 0.266 µM) | 1 µg/mL (≈ 2.13 µM) | 0.125 µg/mL (≈ 0.266 µM) | 0.5 µg/mL (≈ 1.06 µM) | – | – | – | – | – | – | – | – | – | MIC90 [1]: 1 µg/mL (≈ 2.13 µM); antibacterial activity against linezolid-resistant bacteria (in words) ([7]; Enterococcus faecalis and Enterococcus faecium which are resistant to linezolid): very high antibacterial activity |
| CC(=O)NC[C@H]1CN(c2ccc(-c3ccc(N4C=NN(CC(=O)OC(C)(C)C)CC4)nc3)c(F)c2)C(=O)O1 [Compound 9] | 2 µg/mL (≈ 3.8 µM) | 1 µg/mL (≈ 1.9 µM) | 4 µg/mL (≈ 7.6 µM) | 2 µg/mL (≈ 3.8 µM) | 1 µg/mL (≈ 1.9 µM) | 8 µg/mL (≈ 15.2 µM) | 4 µg/mL (≈ 7.6 µM) | 2 µg/mL (≈ 3.8 µM) | 8 µg/mL (≈ 15.2 µM) | 1 µg/mL (≈ 1.9 µM) | 8 µg/mL (≈ 15.2 µM) | – | – | – | – | – | – | – | – | – | – |
| CN1CCON=C1c1ccc(-c2ccc(N3C[C@H](CO)OC3=O)cc2F)cn1 [Compound 71] | – | – | – | – | – | – | – | – | – | – | – | 2 µg/mL (≈ 5.18 µM) | 2 µg/mL (≈ 5.18 µM) | 4 µg/mL (≈ 10.4 µM) | 2 µg/mL (≈ 5.18 µM) | 2 µg/mL (≈ 5.18 µM) | 16 µg/mL (≈ 41.4 µM) | 4 µg/mL (≈ 10.4 µM) | 2 µg/mL (≈ 5.18 µM) | 16 µg/mL (≈ 41.4 µM) | MIC90 [1, 13]: 8 µg/mL (≈ 20.7 µM); MIC90 [11, 23]: 4 µg/mL (≈ 10.4 µM); MIC90 [12, 24]: 8 µg/mL (≈ 20.7 µM) |
| CC(=O)NC[C@H]1CN(c2ccc(-c3ccc(N4C=NN(CCO)CC4)nc3)c(F)c2)C(=O)O1 [Compound 6] | – | – | – | – | – | – | – | – | – | – | – | 0.5 µg/mL (≈ 1.1 µM) | 0.5 µg/mL (≈ 1.1 µM) | 1 µg/mL (≈ 2.19 µM) | 0.5 µg/mL (≈ 1.1 µM) | 0.5 µg/mL (≈ 1.1 µM) | 2 µg/mL (≈ 4.38 µM) | 1 µg/mL (≈ 2.19 µM) | 0.5 µg/mL (≈ 1.1 µM) | 2 µg/mL (≈ 4.38 µM) | MIC90 [11, 23]: 0.5 µg/mL (≈ 1.1 µM); MIC90 [12, 24]: 2 µg/mL (≈ 4.38 µM) |
| C#CCN1C=NN(c2ccc(-c3ccc(N4C[C@H](CNC(C)=O)OC4=O)cc3F)cn2)CC1 [Compound 55] | 2 µg/mL (≈ 4.44 µM) | 1 µg/mL (≈ 2.22 µM) | 4 µg/mL (≈ 8.88 µM) | 2 µg/mL (≈ 4.44 µM) | 2 µg/mL (≈ 4.44 µM) | 4 µg/mL (≈ 8.88 µM) | 4 µg/mL (≈ 8.88 µM) | 2 µg/mL (≈ 4.44 µM) | 4 µg/mL (≈ 8.88 µM) | 1 µg/mL (≈ 2.22 µM) | 4 µg/mL (≈ 8.88 µM) | – | – | – | – | – | – | – | – | – | – |
| CCOC(=O)CN1CCN(c2ccc(-c3ccc(N4C[C@H](CNC(C)=O)OC4=O)cc3F)cn2)C=N1 [Compound 5] | 0.5 µg/mL (≈ 1 µM) | 0.5 µg/mL (≈ 1 µM) | 1 µg/mL (≈ 2.01 µM) | 0.5 µg/mL (≈ 1 µM) | 0.5 µg/mL (≈ 1 µM) | 2 µg/mL (≈ 4.01 µM) | 1 µg/mL (≈ 2.01 µM) | 0.5 µg/mL (≈ 1 µM) | 2 µg/mL (≈ 4.01 µM) | 0.5 µg/mL (≈ 1 µM) | 2 µg/mL (≈ 4.01 µM) | – | – | – | – | – | – | – | – | – | – |
